Reference: ChEMBL document CHEMBL1201862, “PubChem BioAssay data set” (2004)
Calls of active or inactive are those of the source.

Tests used:
[1] = target: T1, Short transient receptor potential channel 4 (Mus musculus, UniProt Q9QUQ5); experiment: mouse TRPC4 channel inhibitors, dose response, cell-based, HEK293 TRPC4/mu-opioid, Fluo-4 calcium (AID 434942); format: functional;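 further: potency of inhibitors blocking the TRPC4 calcium response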
T1 sequence (Q9QUQ5 whole entry): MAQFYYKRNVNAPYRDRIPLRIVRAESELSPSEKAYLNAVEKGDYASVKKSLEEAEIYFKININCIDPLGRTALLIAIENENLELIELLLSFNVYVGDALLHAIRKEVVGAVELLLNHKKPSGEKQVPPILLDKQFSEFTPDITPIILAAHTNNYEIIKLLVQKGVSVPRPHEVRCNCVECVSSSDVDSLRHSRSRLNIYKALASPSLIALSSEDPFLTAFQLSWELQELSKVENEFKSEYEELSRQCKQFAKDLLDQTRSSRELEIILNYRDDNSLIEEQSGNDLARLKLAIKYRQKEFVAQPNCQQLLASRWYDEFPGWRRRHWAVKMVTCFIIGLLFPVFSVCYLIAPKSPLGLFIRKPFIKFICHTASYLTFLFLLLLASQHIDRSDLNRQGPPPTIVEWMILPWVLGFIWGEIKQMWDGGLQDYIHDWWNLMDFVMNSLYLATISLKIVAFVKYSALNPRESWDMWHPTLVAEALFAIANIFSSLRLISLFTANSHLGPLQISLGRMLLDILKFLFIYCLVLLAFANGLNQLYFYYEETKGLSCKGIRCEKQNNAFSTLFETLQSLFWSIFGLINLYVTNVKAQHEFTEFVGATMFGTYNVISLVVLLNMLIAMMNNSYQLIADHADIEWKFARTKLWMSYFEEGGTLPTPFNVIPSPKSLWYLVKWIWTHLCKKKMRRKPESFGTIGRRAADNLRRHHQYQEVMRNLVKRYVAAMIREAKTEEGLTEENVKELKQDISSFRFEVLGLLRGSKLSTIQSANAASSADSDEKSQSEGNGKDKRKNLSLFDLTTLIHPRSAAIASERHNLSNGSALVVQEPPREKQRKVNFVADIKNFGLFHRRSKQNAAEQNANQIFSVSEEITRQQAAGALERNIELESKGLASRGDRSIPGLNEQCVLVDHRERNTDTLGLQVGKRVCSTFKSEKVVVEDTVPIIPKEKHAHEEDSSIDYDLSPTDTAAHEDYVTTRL

cells [2] = format: functional, cell-based
[3] = target: Glyceraldehyde-3-phosphate dehydrogenase (Homo sapiens, UniProt P04406)
cells [4] = format: functional, cell-based; remark: listed apart in the source
HEK293 [5] = experiment: cells; format: functional, cell-based; settings: Homo sapiens
HEK293 [6] = experiment: cells; format: functional, cell-based; settings: Homo sapiens; remark: listed apart in the source
[7] = target: Nucleotide-binding oligomerization domain-containing protein 2 (Homo sapiens, UniProt Q9HC29); experiment: NOD2 signaling inhibitors, cell-based, luminescence, uHTS, HEK293 (AID 1566); format: functional
HEK293 [8] = experiment: cells; format: functional, cell-based; settings: Homo sapiens; remark: listed apart in the source
HEK293 [9] = experiment: NOD2 signaling inhibitors in MDP-stimulated cells, cell-based, uHTS, luminescence (AID 2001); format: functional; settings: Homo sapiens
HEK293 [10] = experiment: NOD1 signaling inhibitors, primary screen, cell-based, luminescence, uHTS (AID 1578); format: functional; settings: Homo sapiens
Insulin-degrading enzyme = target: T2, Insulin-degrading enzyme (Homo sapiens, UniProt P14735); experiment: Dose Response: Fluorescence polarization-based cell-based high throughput dose response assay for inhibitors of insulin-degrading enzyme (IDE). [Related pubchem assays: 434962 (Primary screen (IDE inhibitors in singlicate)), 449730 (Counterscreen (Cytotoxicity in triplicate)), 435028 (Confirmation (IDE inhibitors in triplicate)), 434984 (Summary …; format: functional
T2 sequence (P14735 whole entry): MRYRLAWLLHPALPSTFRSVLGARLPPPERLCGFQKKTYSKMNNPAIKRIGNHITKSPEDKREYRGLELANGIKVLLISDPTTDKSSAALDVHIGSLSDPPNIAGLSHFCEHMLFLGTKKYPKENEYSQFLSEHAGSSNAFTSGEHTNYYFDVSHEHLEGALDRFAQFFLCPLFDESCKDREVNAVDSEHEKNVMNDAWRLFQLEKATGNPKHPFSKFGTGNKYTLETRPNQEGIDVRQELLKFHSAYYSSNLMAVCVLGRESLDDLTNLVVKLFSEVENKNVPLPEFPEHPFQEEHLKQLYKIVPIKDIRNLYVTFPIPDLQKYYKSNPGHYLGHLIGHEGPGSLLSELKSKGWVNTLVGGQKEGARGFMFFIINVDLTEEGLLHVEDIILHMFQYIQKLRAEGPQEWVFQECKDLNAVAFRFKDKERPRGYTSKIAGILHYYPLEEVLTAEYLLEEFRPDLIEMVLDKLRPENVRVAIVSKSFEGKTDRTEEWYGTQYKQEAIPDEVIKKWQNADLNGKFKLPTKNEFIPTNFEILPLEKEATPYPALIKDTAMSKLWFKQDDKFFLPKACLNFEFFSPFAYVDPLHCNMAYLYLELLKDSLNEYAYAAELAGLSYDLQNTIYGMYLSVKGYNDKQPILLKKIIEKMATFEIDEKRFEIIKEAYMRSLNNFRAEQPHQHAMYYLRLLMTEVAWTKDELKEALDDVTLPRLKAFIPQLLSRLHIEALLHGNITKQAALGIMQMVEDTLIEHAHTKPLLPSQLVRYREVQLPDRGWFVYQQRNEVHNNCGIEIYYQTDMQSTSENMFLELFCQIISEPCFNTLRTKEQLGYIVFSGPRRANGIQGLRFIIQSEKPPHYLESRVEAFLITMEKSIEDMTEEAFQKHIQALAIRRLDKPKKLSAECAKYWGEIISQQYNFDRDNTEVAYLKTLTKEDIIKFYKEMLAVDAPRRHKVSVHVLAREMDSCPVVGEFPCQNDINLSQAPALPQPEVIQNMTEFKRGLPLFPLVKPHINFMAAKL

[11] = target: T3, Heat shock factor protein 1 (Mus musculus, UniProt P38532); experiment: inhibition of MG132-induced HSE-luciferase signal, confirmation, cell-based, NIH3T3, luminescence, dose retest (AID 2382); format: functional;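 further: NIH3T3 fibroblasts with HSF1-driven luciferase reporter stressed by proteasome inhibitor MG132; luminescence from HSF1-driven luciferase expression after 8 hours of MG132 stress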
T3 sequence (P38532 whole entry): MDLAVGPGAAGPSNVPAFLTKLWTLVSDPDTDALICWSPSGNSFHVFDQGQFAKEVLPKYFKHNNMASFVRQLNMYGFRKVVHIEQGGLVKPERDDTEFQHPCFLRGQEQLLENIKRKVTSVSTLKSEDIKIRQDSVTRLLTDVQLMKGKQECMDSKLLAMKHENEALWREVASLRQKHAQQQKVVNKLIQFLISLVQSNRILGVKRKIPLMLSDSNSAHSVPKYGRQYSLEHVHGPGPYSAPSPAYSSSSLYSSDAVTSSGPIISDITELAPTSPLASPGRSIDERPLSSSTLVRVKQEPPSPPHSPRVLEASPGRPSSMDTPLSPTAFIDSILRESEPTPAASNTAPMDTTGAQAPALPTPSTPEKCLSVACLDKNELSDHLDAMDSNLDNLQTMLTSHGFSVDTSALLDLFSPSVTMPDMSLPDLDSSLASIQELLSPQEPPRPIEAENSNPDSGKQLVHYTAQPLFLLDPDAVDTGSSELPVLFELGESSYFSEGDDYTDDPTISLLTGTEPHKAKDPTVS

[12] = inhibitors of SNCA 5'UTR-driven reporter translation, confirmation, H4 neuroglioma cells, luminescence (AID 1988); format: functional, cell-based
[13] = target: FAD-linked sulfhydryl oxidase ALR (Homo sapiens, UniProt P55789); experiment: inhibitors of human ALR sulfhydryl oxidase, dose response, biochemical, H2O2 detection, luminescence, cherry-pick (AID 493248)
[14] = inhibitors of firefly luciferase expression or activity, dose response, H4 neuroglioma cells, luminescence (AID 1990); format: functional, cell-based
[15] = Counterscreen for IDE inhibitors: Luminescence-based cell-based high throughput dose response assay to identify compounds that are cytotoxic to HEK cells. [Related pubchem assays: 434962 (Primary screen (IDE inhibitors in singlicate)), 449730 (Counterscreen (Cytotoxicity in triplicate)), 435028 (Confirmation (IDE inhibitors in triplicate)) …; format: functional; settings: HEK293
[16] = target: T4, Microphthalmia-associated transcription factor (Homo sapiens, UniProt O75030); experiment: TRPM1 promoter luciferase signal decrease, dose response, MITF inhibitor project, cell-based, SK-MEL-5, cherry-picked, set 3 (AID 493073); format: functional
T4 sequence (O75030 whole entry): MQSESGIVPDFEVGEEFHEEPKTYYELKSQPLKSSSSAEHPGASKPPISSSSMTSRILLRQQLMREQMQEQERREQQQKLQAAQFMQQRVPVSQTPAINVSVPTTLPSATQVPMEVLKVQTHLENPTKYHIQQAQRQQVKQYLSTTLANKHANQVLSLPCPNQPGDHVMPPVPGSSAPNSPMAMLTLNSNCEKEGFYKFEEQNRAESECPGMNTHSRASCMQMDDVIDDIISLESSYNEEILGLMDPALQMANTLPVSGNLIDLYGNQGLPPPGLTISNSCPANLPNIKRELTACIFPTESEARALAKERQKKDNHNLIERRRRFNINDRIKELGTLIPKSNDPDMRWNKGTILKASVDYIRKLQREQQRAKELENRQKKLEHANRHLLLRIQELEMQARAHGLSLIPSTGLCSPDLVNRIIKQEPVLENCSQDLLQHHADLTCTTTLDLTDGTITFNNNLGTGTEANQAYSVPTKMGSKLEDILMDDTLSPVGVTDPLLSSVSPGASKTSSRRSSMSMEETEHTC

Cytochrome P450 2C19 = Cytochrome P450 2C19 (Homo sapiens, UniProt P33261); experiment: Cytochrome panel assay with activity outcomes. Panel member name: p450-cyp2c19 Compounds with AC50 equal or less than 10 uM are considered active; format: functional; settings: read-out: AC50
Cytochrome P450 3A4 = Cytochrome P450 3A4 (Homo sapiens, UniProt P08684);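 further: CYP3A4 tested as one member of a cytochrome P450 panel screen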
Cytochrome P450 2C9 = Cytochrome P450 2C9 (Homo sapiens, UniProt P11712)
Chain of Cytochrome P450 2C9 (P11712 whole entry): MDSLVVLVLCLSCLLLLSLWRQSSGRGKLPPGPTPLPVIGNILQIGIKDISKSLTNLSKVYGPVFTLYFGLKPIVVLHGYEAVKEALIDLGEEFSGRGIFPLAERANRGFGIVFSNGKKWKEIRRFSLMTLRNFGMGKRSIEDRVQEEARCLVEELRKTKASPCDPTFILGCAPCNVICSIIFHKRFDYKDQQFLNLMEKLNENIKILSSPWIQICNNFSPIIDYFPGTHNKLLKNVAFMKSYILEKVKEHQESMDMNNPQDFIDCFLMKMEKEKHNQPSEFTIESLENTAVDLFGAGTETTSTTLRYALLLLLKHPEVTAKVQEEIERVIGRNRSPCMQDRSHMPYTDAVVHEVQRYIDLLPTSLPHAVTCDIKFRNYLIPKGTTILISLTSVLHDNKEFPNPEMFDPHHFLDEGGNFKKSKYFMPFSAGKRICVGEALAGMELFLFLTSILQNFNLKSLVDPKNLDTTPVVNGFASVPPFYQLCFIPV

Chain of Nucleotide-binding oligomerization domain-containing protein 2 (Q9HC29 whole entry, the tested form may be a part): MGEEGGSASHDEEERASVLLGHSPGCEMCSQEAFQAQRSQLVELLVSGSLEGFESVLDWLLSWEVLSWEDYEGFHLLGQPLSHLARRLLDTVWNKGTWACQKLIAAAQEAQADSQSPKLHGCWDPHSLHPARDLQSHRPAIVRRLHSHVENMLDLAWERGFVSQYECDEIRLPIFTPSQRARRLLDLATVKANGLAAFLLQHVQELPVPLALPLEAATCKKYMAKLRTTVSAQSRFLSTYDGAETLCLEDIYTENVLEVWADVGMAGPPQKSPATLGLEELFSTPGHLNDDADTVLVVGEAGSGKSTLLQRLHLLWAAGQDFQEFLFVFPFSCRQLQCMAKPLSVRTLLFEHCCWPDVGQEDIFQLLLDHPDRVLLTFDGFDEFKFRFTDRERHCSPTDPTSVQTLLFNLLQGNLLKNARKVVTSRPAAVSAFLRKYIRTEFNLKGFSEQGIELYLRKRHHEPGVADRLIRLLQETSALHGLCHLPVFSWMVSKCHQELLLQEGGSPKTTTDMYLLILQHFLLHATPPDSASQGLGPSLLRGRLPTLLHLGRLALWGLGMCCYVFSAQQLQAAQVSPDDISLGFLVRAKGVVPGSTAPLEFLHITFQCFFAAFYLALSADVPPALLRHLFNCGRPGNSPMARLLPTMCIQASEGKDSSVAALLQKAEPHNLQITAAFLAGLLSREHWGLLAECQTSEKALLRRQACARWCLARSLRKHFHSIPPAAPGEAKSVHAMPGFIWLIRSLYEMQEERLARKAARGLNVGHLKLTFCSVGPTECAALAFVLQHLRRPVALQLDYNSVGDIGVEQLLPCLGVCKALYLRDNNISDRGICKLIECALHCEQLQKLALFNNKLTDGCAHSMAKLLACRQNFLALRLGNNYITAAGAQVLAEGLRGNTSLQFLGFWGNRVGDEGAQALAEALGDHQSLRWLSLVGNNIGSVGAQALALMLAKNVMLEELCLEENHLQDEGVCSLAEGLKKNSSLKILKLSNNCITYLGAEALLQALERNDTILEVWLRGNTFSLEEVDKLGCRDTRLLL
Chain of Glyceraldehyde-3-phosphate dehydrogenase (P04406 whole entry): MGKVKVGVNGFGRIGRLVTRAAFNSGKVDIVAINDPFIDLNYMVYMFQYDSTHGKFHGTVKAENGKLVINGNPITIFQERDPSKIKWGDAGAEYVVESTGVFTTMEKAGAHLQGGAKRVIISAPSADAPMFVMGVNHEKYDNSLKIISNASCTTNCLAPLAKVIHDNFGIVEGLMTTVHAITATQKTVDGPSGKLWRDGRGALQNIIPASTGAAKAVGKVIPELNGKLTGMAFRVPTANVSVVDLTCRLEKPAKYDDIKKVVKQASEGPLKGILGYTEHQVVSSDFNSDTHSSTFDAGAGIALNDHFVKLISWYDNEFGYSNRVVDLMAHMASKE
Chain of Cytochrome P450 2C19 (P33261 whole entry): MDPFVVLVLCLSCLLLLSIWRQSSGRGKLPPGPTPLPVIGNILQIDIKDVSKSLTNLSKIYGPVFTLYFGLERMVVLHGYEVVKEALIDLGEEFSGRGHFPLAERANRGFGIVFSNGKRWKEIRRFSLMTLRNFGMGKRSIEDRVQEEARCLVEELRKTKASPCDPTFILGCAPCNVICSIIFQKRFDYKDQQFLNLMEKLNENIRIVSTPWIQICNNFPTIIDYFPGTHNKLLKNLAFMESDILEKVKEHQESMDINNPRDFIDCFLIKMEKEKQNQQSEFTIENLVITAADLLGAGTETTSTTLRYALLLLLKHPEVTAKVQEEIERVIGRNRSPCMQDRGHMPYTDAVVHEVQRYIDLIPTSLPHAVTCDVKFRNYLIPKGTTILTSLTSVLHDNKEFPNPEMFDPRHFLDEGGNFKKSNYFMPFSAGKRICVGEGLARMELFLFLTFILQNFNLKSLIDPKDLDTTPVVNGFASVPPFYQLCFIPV
Chain of Cytochrome P450 3A4 (P08684 whole entry): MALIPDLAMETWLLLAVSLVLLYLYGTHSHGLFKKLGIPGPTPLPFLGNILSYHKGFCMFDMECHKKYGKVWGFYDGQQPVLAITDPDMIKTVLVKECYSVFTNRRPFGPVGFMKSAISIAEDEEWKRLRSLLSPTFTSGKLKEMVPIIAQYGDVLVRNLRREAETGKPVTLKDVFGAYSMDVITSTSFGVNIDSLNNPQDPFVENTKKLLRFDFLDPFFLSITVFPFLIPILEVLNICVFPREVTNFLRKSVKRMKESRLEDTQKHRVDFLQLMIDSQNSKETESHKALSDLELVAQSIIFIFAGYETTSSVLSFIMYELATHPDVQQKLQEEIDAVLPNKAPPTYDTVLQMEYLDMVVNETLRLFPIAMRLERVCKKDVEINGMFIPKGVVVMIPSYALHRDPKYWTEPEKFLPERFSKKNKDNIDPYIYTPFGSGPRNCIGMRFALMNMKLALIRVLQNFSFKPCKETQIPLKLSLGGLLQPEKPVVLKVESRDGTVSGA
Chain of FAD-linked sulfhydryl oxidase ALR (P55789 whole entry): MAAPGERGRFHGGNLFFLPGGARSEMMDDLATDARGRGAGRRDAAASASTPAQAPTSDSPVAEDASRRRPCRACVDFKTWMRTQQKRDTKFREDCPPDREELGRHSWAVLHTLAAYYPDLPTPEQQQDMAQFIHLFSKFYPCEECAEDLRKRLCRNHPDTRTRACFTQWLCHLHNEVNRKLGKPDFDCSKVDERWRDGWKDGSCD

SMILES | IC50 (HEK293 [5]) | IC50 (HEK293 [6]) | EC50 [7] | IC50 (HEK293 [8]) | IC50 (HEK293 [9]) | EC50 (HEK293 [10]) | other results
CCCn1c(=O)c2ccccc2n2c(SCCOc3ccc(C)cc3)nnc12 |  |  |  |  |  |  | EC50 [1]: 1.68 µM (active)
O=C(O)c1ccc2cccc(O)c2n1 |  |  |  |  |  |  | EC50 (cells [2]): > 350 µM (not active); IC50 [3]: > 100 µM (not active); EC50 (cells [4]): > 350 µM (not active)
COc1ccccc1-c1nc(C#N)c(N2CCN(c3cccc(Cl)c3)CC2)o1 | 18.5 µM (active) | > 20 µM (inactive) | 11.2 µM (active) | > 20 µM (inactive) | 17.4 µM (inactive) | 8.65 µM (active) | 
Cc1ccc(NC(=O)Cc2cc(C(=O)O)c3ccccc3n2)c(C)c1 | 11.7 µM (active) | > 20 µM (inactive) | 6.77 µM (active) | > 20 µM (inactive) | 8.76 µM (inactive) | 7.04 µM (active) | 
COCC(C)n1c(C)cc(C(=O)COc2ccc(C)nc2[N+](=O)[O-])c1C (stereo not given) | 6.88 µM (active) | > 20 µM (inactive) | 16.7 µM (active) | > 20 µM (inactive) | > 20 µM (inactive) | > 20 µM (inactive) | 
O=C(O)c1ccc(OCc2ccc(C(=O)O)o2)cc1 |  |  |  |  |  |  | IC50 [3]: > 100 µM (not active)
CC1CCc2c(sc3ncnc(SCC(=O)Nc4ccc(C(=O)O)cc4)c23)C1 (stereo not given) |  |  |  |  |  |  | EC50 [1]: 6.68 µM (active)
O=C(Nc1ccc(Cl)cn1)c1ccc(Br)c(S(=O)(=O)N2CCCCC2)c1 | 7.73 µM (active) | > 20 µM (inactive) | > 20 µM (inactive) | 18.7 µM (active) | 9.77 µM (active) | 9.56 µM (active) | 
CN(C)c1ccc(/C=C2\SC(=O)N(CCc3nnc(N)s3)C2=O)cc1 |  |  |  |  |  |  | IC50 (Insulin-degrading enzyme): > 55.9 µM (not active); EC50 [11]: 6.52 µM (inconclusive); EC50 [12]: 4.74 µM (active); AC50 [13]: 1.87 µM (active); EC50 [14]: 8.39 µM (inconclusive); IC50 [15]: 47.8 µM (not active); AC50 [16]: 2.54 µM (active)
Cc1cccc(Oc2coc3cc(OC(=O)c4cc5ccccc5oc4=O)ccc3c2=O)c1 |  |  |  |  |  |  | AC50 (Cytochrome P450 2C19): 25.1 µM (inconclusive); AC50 (Cytochrome P450 3A4): 39.8 µM (inconclusive); AC50 (Cytochrome P450 2C9): inconclusive
